From EP4782453A1 (Beyang Therapeutics Co., Ltd., priority 2023, dated 2025)
pIC50: −log10 of the molar value. Read-outs that look alike come from different tables or passages of the source.

Biological target: T1, Menin-MLL (Homo sapiens, UniProt O00255)
T1 construct: His-Menin (M1-L615 end); purchased BIORTUS BP9210
T1 sequence (O00255 1-615 isoform O00255-1): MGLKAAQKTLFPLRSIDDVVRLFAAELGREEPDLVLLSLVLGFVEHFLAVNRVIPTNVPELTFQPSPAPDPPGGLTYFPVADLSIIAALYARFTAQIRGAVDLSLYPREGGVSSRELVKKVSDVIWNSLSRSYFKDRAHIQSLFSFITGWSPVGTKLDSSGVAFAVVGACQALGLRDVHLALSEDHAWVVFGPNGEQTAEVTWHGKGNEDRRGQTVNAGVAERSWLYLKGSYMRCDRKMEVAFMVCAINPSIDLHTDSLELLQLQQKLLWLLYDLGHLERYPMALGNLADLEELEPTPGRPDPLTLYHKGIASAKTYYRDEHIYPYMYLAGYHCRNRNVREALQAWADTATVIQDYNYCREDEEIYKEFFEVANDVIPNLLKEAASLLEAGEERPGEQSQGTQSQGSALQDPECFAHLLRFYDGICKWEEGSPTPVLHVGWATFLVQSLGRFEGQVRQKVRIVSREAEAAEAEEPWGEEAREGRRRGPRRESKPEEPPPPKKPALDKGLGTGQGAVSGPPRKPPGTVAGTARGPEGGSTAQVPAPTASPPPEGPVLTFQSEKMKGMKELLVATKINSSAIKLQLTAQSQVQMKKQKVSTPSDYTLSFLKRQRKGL
Assay: Inhibitory activity against Menin-MLL binding (fluorescence polarization)
Conditions: 150 nM His-Menin, 15 nM FITC-MLL, 25°C for 60 min
Method in brief: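 Fluorescence polarization competition: compound and 150 nM His-tagged menin (residues M1-L615) sit 15 min at 25 °C in pH 7.5 HEPES buffer with NaCl, DTT and BSA; 15 nM FITC-labelled MLL peptide then binds for 60 min. IC50 fitted sigmoidally from mP values, duplicate wells.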

[1] = Menin-MLL IC50, fluorescence polarization
[2] = fluorescence polarization, read-out: Menin-MLL IC50

Row | Compound | pIC50 [1] | pIC50 [2]
1 | CCN(C(=O)c1cc(F)ccc1-c1cc([C@H]2CCN(C[C@H]3CC[C@H](NS(=O)(=O)CC)CC3)C2)cc2cncn12)C(C)C [Example 25-2, N-ethyl-5-fluoro-N-isopropyl-2-{7-[(3R)-1-{[(1r,4r)-4-ethanesulfonamidocyclohexyl]methyl}pyrrolidin-3-yl]imidazo[1,5-a]pyridin-5-yl}benzamide] | 7.68 | 
2 | CCN(C(=O)c1cc(F)ccc1-c1cc(C2CCN(C[C@H]3C[C@H](NS(=O)(=O)CC)C3)C2)cn2c(C)ncc12)C(C)C (stereo partly drawn) [Example 102] |  | 7.15
3 | CCN(C(=O)c1cc(F)ccc1-c1cc(C2CCN(C[C@H]3CC[C@H](NS(=O)(=O)CC)CC3)C2)nc2c1cnn2C)C(C)C (mixture of isomers) [Example 11, N-ethyl-5-fluoro-2-[1-methyl-6-(1-{[(1r,4r)-4-ethanesulfonamidocyclohexyl]methyl}pyrrolidin-3-yl)-1H-pyrazolo[3,4-b]pyridin-4-yl]-N-(isopropyl)benzamide] | 6.81 | 
4 | CCN(C(=O)c1cc(F)ccc1-c1cc(C2CN([C@H](CCCN3CCN(CCO)C(=O)C3)C(C)C)C2)cn2c(C)ncc12)C(C)C [Example 486, N-ethyl-5-fluoro-2-(6-{1-[(3R)-6-[4-(2-hydroxyethyl)-3-oxopiperazin-1-yl]-2-methylhexan-3-yl]azacyclobutan-3-yl}-3-methylimidazo[1,5-a]pyridin-8-yl)-N-(isopropyl)benzamide] |  | 8.38
5 | CCS(=O)(=O)N[C@H]1CC[C@H](CN2CCCC(c3cc(-c4ccc(F)cc4C(=O)N(CC(F)F)C(C)C)c4cnn(C)c4c3)C2)CC1 (stereo partly drawn) [Example 170, N-(2,2-difluoroethyl)-5-fluoro-2-[1-methyl-6-(1-{[(1r,4r)-4-ethanesulfonamidocyclohexyl]methyl}piperidin-3-yl)-1H-indazol-4-yl]-N-(isopropyl)benzamide] | 7.22 | 
6 | CCN(C(=O)c1cc(F)ccc1-c1cc(C2CCN(CC3(O)CCC(NC(=O)OC(C)(C)C)CC3)C2)cn2c(C)ncc12)C(C)C (stereo not drawn) [Compound 50, N-(4-{[3-(8-{2-[ethyl(isopropyl)aminoformyl]-4-fluorophenyl}-3-methylimidazo[1,5-a]pyridin-6-yl)pyrrolidin-1-yl]methyl}-4-hydroxylcyclohexyl)tert-butyl carbamate] |  | 7.85
7 | CCN(C(=O)c1cc(F)ccc1-c1cc(C2CN(C(=O)[C@@H](NC)C3CCCC3)C2)cn2c(C)nc(F)c12)C(C)C [Example 317] | 7.04 | 
8 | CO[C@@H]1CN(CCC[C@H](C(C)C)N2CC(c3cc(-c4ccc(F)cc4C(=O)N4CCOC[C@H]4C)c4c(F)nc(C)n4c3)C2)C[C@H]1O [Example 291-1, (3R,4R)-1-[(4R)-4-[3-(1-fluoro-8-{4-fluoro-2-[(3R)-3-methylmorpholin-4-carbonyl]phenyl}-3-methylimidazo[1,5-a]pyridin-6-yl)azacyclobutan-1-yl]-5-methylhexyl]-4-methoxypyrrolidin-3-ol] |  | 8.22
9 | Cc1nc(F)c2c(-c3ccc(F)cc3C(=O)N3CCOC[C@H]3C)cc(C3CN([C@H](CN4CCNCC4)C(C)C)C3)cn12 [Example 367-2, (3R)-4-[5-fluoro-2-(1-fluoro-3-methyl-6-{1-[(2S)-3-methyl-1-(piperazin-1-yl)butan-2-yl]azacyclobutan-3-yl}imidazo[1,5-a]pyridin-8-yl)benzoyl]-3-methylmorpholine] |  | 8.40
10 | CCN(C(=O)c1cc(F)ccc1-c1cc(C2CN([C@H](CCCN3CC4(COC4)C3)C(C)C)C2)cn2c(C)ncc12)C(C)C [Example 388] |  | 8.68
11 | CCN(C(=O)c1cc(F)ccc1-c1cc(C2CCN(C(=O)[C@@H]3CCCCN3)C2)cn2c(C)ncc12)C(C)C (stereo partly drawn) [Example 97] | 6.68 | 
12 | CC(=O)N1CCN(CCC[C@H](C(C)C)N2CC(c3cc(-c4ccc(F)cc4C(=O)N4CCOC[C@H]4C)c4c(F)nc(C)n4c3)C2)C[C@H]1C [Example 330, 1-{(2R)-4-[(4R)-4-[3-(1-fluoro-8-{4-fluoro-2-[(3R)-3-methylmorpholin-4-carbonyl]phenyl}-3-methylimidazo[1,5-a]pyridin-6-yl)azacyclobutan-1-yl]-5-methylhexyl]-2-methylpiperazin-1-yl}ethan-1-one] |  | 7.80
